Converted amounts (≈) assume the structure as drawn.
Tested on: Mycobacterium tuberculosis variant bovis
Experiment: Antimycobacterial activity against Mycobacterium bovis BCG assessed as inhibition of bacterial growth incubated for 4 days by alamar blue assay
Assay type: functional
Conditions: 96 h, time 4 day

## CCCC[C@H](CN(O)C=O)C(=O)N1CCC[C@H]1C(=O)Nc1ccccn1
  MIC: 0.2 µg/mL (≈ 0.552 µM)
